Data from patent US7767411B2, “Assay system for specific inhibitors of protein kinase C-related kinases” (Universitaetsklinikum Freiburg, priority 2004, dated 2010).

Legend:
protein kinases = conditions: described in S. P. Davies et al.; cited from earlier work
[1] = system: androgen receptor (AR) activation by RhoA V14; assay: ligand-dependent activation of the androgen receptor (AR) by RhoA V14, MMTV-LUC reporter in 293 cells; format: cell-based; conditions: RhoA V14 plasmid, with or without R 1881 10^-10 M, 5×10^−7 M Ro31-8220
From the text: In another preferred embodiment, the assay system comprises the reaction of the ligand-dependent activation of the androgen receptor (AR) by RhoA V 14. […] Reference is made, in this respect, to FIG. 2.

MCF-7 cells = assay: androgen receptor agonist R 1881-induced cell proliferation in MCF-7 cells; format: cell-based; conditions: presence or absence of R1881, FIG. 3
Experimental: The inventors studied the cell proliferation inter alia in MCF-7 cells which is induced by the androgen receptor agonist R 1881 under the activating/promoting action of PRKs. MCF-7 cells were cultivated in RPMI 1640 supplemented with 2 g/l NaHCO3, L-Glu, Pen/Strep, 10% FCS (fetal calf serum), and insulin 1U/ml in the presence or absence of R1881 and Ro31-8220 at the indicated concentrations. The cell proliferation assay was performed according to the manufacture's instructions (Roche, #1647229).

Structure (SMILES) | protein kinases acted on (specificity) (protein kinases) | agonist-dependent androgen receptor (AR) activation by RhoA V14 [1] | R 1881-induced cell proliferation (MCF-7 cells)
C[C@@H](N)[C@H]1CC[C@H](C(=O)Nc2ccncc2)CC1 [Y 27632] | act on PRKs, but also on MSK1, ROCK-II and MAPKAP-K1b | – | –
Cn1cc(C2=C(c3cn(CCCSC(=N)N)c4ccccc34)C(=O)NC2=O)c2ccccc21 [Ro31-8220] | act on PRKs, but also on MSK1, S6K1 and other protein kinases | abolished | inhibited
